Measured values from article PMC4459817, “Vasculotide reduces endothelial permeability and tumor cell extravasation in the absence of binding to or agonistic activation of Tie2” (EMBO Molecular Medicine, 2015).

Tested on: human Tie2-Fc (extracellular domain of Tie2)
Assay: pull-down assay, human Tie2-Fc
Assay type: binding
Details: human Tie2-Fc on protein A sepharose; rhAng1 20 ng or VT 100 ng, pH 7.4, 4°C; Fig9A,B
Description: To better understand the difficulties we had in observing Tie2 activation by VT, we sought to characterize the binding affinity and kinetics of VT to Tie2. Purified human or mouse Tie2-Fc (i.e., Fc-conjugated extracellular domains of Tie2) were first coupled to protein A sepharose beads for pull-down experiments (Fig9A and B) or immobilized on a Biacore CM5 sensor chip for surface plasmon resonance (SPR) experiments (Fig9C and Supplementary Fig S3).
Figure 9 Binding of Vasculotide vs. Ang1 variants to the extracellular domain of Tie2 • A–B Pull-down assay. Input ligands—rhAng1 (A) and VT (B)—were incubated with either protein A sepharose beads only, bead-conjugated mouse Tie2-Fc (mTie2), or bead-conjugated human Tie2-Fc (hTie2). […] The ‘unbound’ fraction is 7% of residual/free ligands remaining in the supernatant. • C Quantitative kinetics analysis by SPR. All analytes were run at increasing concentrations of 0.625, 1.25, 2.5, 5, and 10 nM, at 37°C and pH 7.4. […] Source data are available online for this figure. […]
Semi-quantitative densitometry analysis of immunoblots was performed using the ChemiGenius2 bioimaging system and GeneSnap/GeneTools software (Syngene). […]

Molecule	pull-down by Tie2-Fc
CHHHRHSF [Vasculotide, 4-armed maleimide-functionalized polyethylene glycol (PEG) backbone to link together four cysteine-capped T7 peptides, that is, CHHHRHSF]	did not pull down any appreciable levels
recombinant human Ang1 (rhAng1) (ligand, UniProt Q15389 16-498, looked up, angiopoietin-1, human, recombinant; also called angiopoietin-1; source: bought: R&D Systems (named for the Boyden chamber experiments)) HIGCSNQRRSPENSGRRYNRIQHGQCAYTFILPEHDGNCRESTTDQYNTNALQRDAPHVEPDFSSQKLQHLEHVMENYTQWLQKLENYIVENMKSEMAQIQQNAVQNHTATMLEIGTSLLSQTAEQTRKLTDVETQVLNQTSRLEIQLLENSLSTYKLEKQLLQQTNEILKIHEKNSLLEHKILEMEGKHKEELDTLKEEKENLQGLVTRQTYIIQELEKQLNRATTNNSVLQKQQLELMDTVHNLVNLCTKEGVLLKGGKREEEKPFRDCADVYQAGFNKSGIYTIYINNMPEPKKVFCNMDVNGGGWTVIQHREDGSLDFQRGWKEYKMGFGNPSGEYWLGNEFIFAITSQRQYMLRIELMDWEGNRAYSQYDRFHIGNEKQNYRLYLKGHTGTAGKQSSLILHGADFSTKDADNDNCMCKCALMLTGGWWFDACGPSNLNGMFYTAGQNHGKLNGIKWHYFKGPSYSLRSTTMMIRPLDF	effectively pulled down the majority
